Target: T1, Nav1.7 voltage-gated sodium channel (Homo sapiens, UniProt Q15858)
T1 construct: Gene(s) encoding the full-length protein of the voltage-gated sodium channel of interest are cloned and expressed; expressed in transfected cells
Experiment: Whole-cell voltage clamp electrophysiology assay
Type: cell-based
Settings: cells stably expressing the voltage-gated sodium channel of interest
Excerpt: Gene(s) encoding the full-length protein of the voltage-gated sodium channel of interest are cloned and expressed under a suitable promoter in a suitable cell line, as well known in the art. […] Suitable screening assays are as follows.
Electrophysiological studies can be performed using automated patch-clamp electrophysiology platforms, like IonWorks HT, IonWorks Quattro, PatchXpress, QPatch or any other suitable platform. […] Suitable extracellular and intracellular buffer for such experiments are applied according to the instructions given by the manufacturer of the automated patch-clamp platforms. Cells that express the voltage-gated sodium channel protein of interest are exposed to drugs through the pipetting system integrated in the platforms. A suitable voltage stimulus protocol is used to activate the voltage-gated sodium channel proteins of interest through depolarisation from a defined holding potential.
Electrophysiological studies can also be performed using the whole cell configuration of the standard patch clamp technique. In this assay, cells that express the voltage-gated sodium channel protein of interest are exposed to the drugs by conventional microperfusion systems and a suitable voltage stimulus protocol is used to activate the voltage-gated sodium channels.

T1 sequence (Q15858 whole entry): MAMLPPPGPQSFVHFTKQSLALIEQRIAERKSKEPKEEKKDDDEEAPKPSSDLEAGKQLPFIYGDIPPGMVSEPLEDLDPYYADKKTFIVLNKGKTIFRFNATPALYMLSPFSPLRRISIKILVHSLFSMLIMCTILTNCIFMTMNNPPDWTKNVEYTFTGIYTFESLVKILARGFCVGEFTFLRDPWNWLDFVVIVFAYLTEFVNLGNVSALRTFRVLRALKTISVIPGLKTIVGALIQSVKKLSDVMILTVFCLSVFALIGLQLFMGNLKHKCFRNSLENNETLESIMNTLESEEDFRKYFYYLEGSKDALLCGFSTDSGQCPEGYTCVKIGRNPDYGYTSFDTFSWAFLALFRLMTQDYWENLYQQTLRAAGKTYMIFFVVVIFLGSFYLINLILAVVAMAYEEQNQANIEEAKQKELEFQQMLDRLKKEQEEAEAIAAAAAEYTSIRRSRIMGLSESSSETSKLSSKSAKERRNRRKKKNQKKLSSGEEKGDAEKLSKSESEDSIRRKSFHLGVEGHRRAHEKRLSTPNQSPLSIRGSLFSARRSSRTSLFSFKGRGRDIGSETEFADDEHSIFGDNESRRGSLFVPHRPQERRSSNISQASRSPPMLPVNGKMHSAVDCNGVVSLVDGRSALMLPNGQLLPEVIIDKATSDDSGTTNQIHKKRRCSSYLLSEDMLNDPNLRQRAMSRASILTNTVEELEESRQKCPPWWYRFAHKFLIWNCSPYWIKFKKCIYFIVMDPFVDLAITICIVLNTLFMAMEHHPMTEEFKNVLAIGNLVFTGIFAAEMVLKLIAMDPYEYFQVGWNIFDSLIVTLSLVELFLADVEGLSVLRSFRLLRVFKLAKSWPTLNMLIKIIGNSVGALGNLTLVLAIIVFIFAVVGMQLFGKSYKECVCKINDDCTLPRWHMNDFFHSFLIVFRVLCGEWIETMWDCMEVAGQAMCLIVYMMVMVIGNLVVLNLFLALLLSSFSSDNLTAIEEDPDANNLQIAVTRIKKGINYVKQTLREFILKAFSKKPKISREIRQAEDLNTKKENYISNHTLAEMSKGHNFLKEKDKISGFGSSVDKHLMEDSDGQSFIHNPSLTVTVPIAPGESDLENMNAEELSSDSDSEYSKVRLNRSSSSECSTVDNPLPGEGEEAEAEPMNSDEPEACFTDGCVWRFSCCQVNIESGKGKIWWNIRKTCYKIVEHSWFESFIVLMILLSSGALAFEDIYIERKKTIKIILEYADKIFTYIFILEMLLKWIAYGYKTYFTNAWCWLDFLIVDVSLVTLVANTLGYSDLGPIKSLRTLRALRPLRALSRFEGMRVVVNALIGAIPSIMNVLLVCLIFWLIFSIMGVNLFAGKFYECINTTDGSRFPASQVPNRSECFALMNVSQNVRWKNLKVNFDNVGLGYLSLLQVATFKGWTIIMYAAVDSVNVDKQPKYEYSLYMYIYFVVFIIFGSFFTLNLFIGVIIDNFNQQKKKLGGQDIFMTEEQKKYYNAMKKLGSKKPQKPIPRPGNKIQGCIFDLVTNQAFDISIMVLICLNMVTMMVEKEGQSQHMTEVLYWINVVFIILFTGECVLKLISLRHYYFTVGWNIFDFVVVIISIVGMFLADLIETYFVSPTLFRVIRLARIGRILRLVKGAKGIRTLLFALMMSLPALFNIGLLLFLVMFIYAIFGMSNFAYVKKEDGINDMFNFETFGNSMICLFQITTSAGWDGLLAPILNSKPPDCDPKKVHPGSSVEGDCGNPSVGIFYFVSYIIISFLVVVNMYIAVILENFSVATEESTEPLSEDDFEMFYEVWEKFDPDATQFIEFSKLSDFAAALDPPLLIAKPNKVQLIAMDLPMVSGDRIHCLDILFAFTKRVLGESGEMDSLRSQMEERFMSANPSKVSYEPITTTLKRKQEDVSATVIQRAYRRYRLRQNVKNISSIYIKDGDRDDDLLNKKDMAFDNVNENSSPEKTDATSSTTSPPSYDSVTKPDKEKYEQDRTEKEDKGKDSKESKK

SMILES	IC50
COc1ccc(-c2ccc(C(=O)N[C@@H]3COc4cccc(-c5ccncc5)c4C3)cn2)c(OC)c1 [Example 70, 6-(2,4-dimethoxyphenyl)-N-[(3S)-5-pyridin-4-yl-3,4-dihydro-2H-chromen-3-yl]nicotinamide]	1000 nM
COc1ncccc1-c1cccc2c1C[C@H](NC(=O)c1ccc(OC(C)C)nc1)CO2 [Example 71, 6-isopropoxy-N-[(3S)-5-(2-methoxypyridin-3-yl)-3,4-dihydro-2H-chromen-3-yl]nicotinamide]	2000 nM
COc1ncccc1-c1cccc2c1C[C@H](NC(=O)c1ccc(OCCC(F)(F)F)nc1)CO2 [Example 72, N-[(3S)-5-(2-methoxypyridin-3-yl)-3,4-dihydro-2H-chromen-3-yl]-6-(3,3,3-trifluoropropoxy)nicotinamide]	501 nM
COc1ncc(-c2cccc3c2C[C@@H](NC(=O)c2ccc(OC(C)C)nc2)CC3)cn1 [Example 73, 6-isopropoxy-N-[(2S)-8-(2-methoxypyrimidin-5-yl)-1,2,3,4-tetrahydronaphthalen-2-yl]nicotinamide]	3980 nM
CC(C)Oc1ccc(C(=O)N[C@@H]2CCc3cccc(-c4cccnc4F)c3C2)cn1 [Example 74, N-[(2R)-8-(2-fluoropyridin-3-yl)-1,2,3,4-tetrahydronaphthalen-2-yl]-6-isopropoxynicotinamide]	251 nM
O=C(N[C@@H]1CCc2cccc(-c3ccnnc3)c2C1)c1ccc(OCCC(F)(F)F)nc1 [Example 75, N-[(2R)-8-pyridazin-4-yl-1,2,3,4-tetrahydronaphthalen-2-yl]-6-(3,3,3-trifluoropropoxy)nicotinamide]	631 nM
COc1ccc(-c2cccc3c2C[C@H](NC(=O)c2ccc(OC(C)C)nc2)CO3)cn1 [Example 76, 6-isopropoxy-N-[(3S)-5-(6-methoxypyridin-3-yl)-3,4-dihydro-2H-chromen-3-yl]nicotinamide]	398 nM
COc1ccc(-c2cccc3c2C[C@H](NC(=O)c2ccc(OCCC(F)(F)F)nc2)CO3)cn1 [Example 77, N-[(3S)-5-(6-methoxypyridin-3-yl)-3,4-dihydro-2H-chromen-3-yl]-6-(3,3,3-trifluoropropoxy)nicotinamide]	126 nM
CC(C)Oc1ccc(C(=O)N[C@@H]2CCc3cccc(-c4ccnnc4)c3C2)cn1 [Example 78, 6-isopropoxy-N-[(2R)-8-pyridazin-4-yl-1,2,3,4-tetrahydronaphthalen-2-yl]nicotinamide]	3160 nM
COc1cnc(C(=O)N[C@@H]2COc3cccc(-c4cnc(OC)c(F)c4)c3C2)cn1 [Example 79, N-[(3S)-5-(5-fluoro-6-methoxypyridin-3-yl)-3,4-dihydro-2H-chromen-3-yl]-5-methoxypyrazine-2-carboxamide]	1260 nM
O=C(N[C@@H]1COc2cccc(-c3ccnnc3)c2C1)c1ccc(OCC(F)(F)F)nc1 [Example 80, N-[(3S)-5-pyridazin-4-yl-3,4-dihydro-2H-chromen-3-yl]-6-(2,2,2-trifluoroethoxy)nicotinamide]	2510 nM
O=C(N[C@@H]1COc2cccc(-c3ccnnc3)c2C1)c1ccc(OCCC(F)(F)F)nc1 [Example 81, N-[(3S)-5-pyridazin-4-yl-3,4-dihydro-2H-chromen-3-yl]-6-(3,3,3-trifluoropropoxy)nicotinamide]	398 nM
COc1ncc(-c2cccc3c2C[C@H](NC(=O)c2ccc(OC(C)C)nc2)CC3)cn1 [Example 82, 6-isopropoxy-N-[(2R)-8-(2-methoxypyrimidin-5-yl)-1,2,3,4-tetrahydronaphthalen-2-yl]nicotinamide]	2510 nM
COc1cnc(C(=O)N[C@@H]2COc3cccc(-c4cnc(OC)nc4)c3C2)cn1 [Example 83, 5-methoxy-N-[(3S)-5-(2-methoxypyrimidin-5-yl)-3,4-dihydro-2H-chromen-3-yl]pyrazine-2-carboxamide]	5010 nM
COc1ncc(-c2cccc3c2C[C@H](NC(=O)c2ccc(OCCC(F)(F)F)nc2)CC3)cn1 [Example 84, N-[(2R)-8-(2-methoxypyrimidin-5-yl)-1,2,3,4-tetrahydronaphthalen-2-yl]-6-(3,3,3-trifluoropropoxy)nicotinamide]	398 nM
COc1ncc(-c2cccc3c2C[C@H](NC(=O)c2ccc(OCC(F)(F)F)nc2)CC3)cn1 [Example 85, N-[(2R)-8-(2-methoxypyrimidin-5-yl)-1,2,3,4-tetrahydronaphthalen-2-yl]-6-(2,2,2-trifluoroethoxy)nicotinamide]	501 nM
O=C(N[C@@H]1CCc2cccc(-c3cccnc3F)c2C1)c1ccc(OCC(F)(F)F)nc1 [Example 87, N-[(2R)-8-(2-fluoropyridin-3-yl)-1,2,3,4-tetrahydronaphthalen-2-yl]-6-(2,2,2-trifluoroethoxy)nicotinamide]	200 nM

SMILES	IC50
COc1ncc(-c2cccc3c2C[C@H](NC(=O)c2ccc(OCC(F)(F)F)nc2)CO3)cc1F [Example 88, N-[(3S)-5-(5-fluoro-6-methoxypyridin-3-yl)-3,4-dihydro-2H-chromen-3-yl]-6-(2,2,2-trifluoroethoxy)nicotinamide]	398 nM
COc1ncc(-c2cccc3c2C[C@H](NC(=O)c2cnc(OCC(F)(F)F)nc2C)CO3)cn1 [Example 89, N-[(3S)-5-(2-methoxypyrimidin-5-yl)-3,4-dihydro-2H-chromen-3-yl]-4-methyl-2-(2,2,2-trifluoroethoxy)pyrimidine-5-carboxamide]	2000 nM
COc1ncc(-c2cccc3c2C[C@H](NC(=O)c2cnc(OCC(F)(F)F)nc2C)CC3)cn1 [Example 90, N-[(2R)-8-(2-methoxypyrimidin-5-yl)-1,2,3,4-tetrahydronaphthalen-2-yl]-4-methyl-2-(2,2,2-trifluoroethoxy)pyrimidine-5-carboxamide]	1580 nM
O=C(N[C@@H]1COc2cccc(-c3ccc4nccn4c3)c2C1)c1ccc(OCC(F)(F)F)nc1 [Example 91, N-[(3S)-5-imidazo[1,2-a]pyridin-6-yl-3,4-dihydro-2H-chromen-3-yl]-6-(2,2,2-trifluoroethoxy)nicotinamide]	79.4 nM
COc1ncc(-c2cccc3c2C[C@H](NC(=O)c2cnc(OC(C)C)nc2C)CO3)cn1 [Example 92, 2-isopropoxy-N-[(3S)-5-(2-methoxypyrimidin-5-yl)-3,4-dihydro-2H-chromen-3-yl]-4-methylpyrimidine-5-carboxamide]	5010 nM
CCOc1ncc(-c2cccc3c2C[C@H](NC(=O)c2ccc(OCC(F)(F)F)nc2)CO3)cn1 [Example 93, N-[(3S)-5-(2-ethoxypyrimidin-5-yl)-3,4-dihydro-2H-chromen-3-yl]-6-(2,2,2-trifluoroethoxy)nicotinamide]	631 nM
COc1ncc(-c2cccc3c2C[C@H](NC(=O)c2ccc(OC4CCC4)nc2)CO3)cc1F [Example 94, 6-(cyclobutyloxy)-N-[(3S)-5-(5-fluoro-6-methoxypyridin-3-yl)-3,4-dihydro-2H-chromen-3-yl]nicotinamide]	794 nM
CCc1ncc(-c2cccc3c2C[C@H](NC(=O)c2ccc(OCC(F)(F)F)nc2)CO3)cn1 [Example 95, N-[(3S)-5-(2-ethylpyrimidin-5-yl)-3,4-dihydro-2H-chromen-3-yl]-6-(2,2,2-trifluoroethoxy)nicotinamide]	158 nM
O=C(N[C@@H]1COc2cccc(-c3cnc(C4CC4)nc3)c2C1)c1ccc(OCCCF)nc1 [Example 96, N-[(3S)-5-(2-cyclopropylpyrimidin-5-yl)-3,4-dihydro-2H-chromen-3-yl]-6-(3-fluoropropoxy)nicotinamide]	50.1 nM
COc1ncc(-c2cccc3c2C[C@H](NC(=O)c2ccc(OCCC(F)(F)F)nc2)CO3)cc1F [Example 97, N-[(3S)-5-(5-fluoro-6-methoxypyridin-3-yl)-3,4-dihydro-2H-chromen-3-yl]-6-(3,3,3-trifluoropropoxy)nicotinamide]	398 nM
COc1cc(-c2cccc3c2C[C@H](NC(=O)c2ccc(OCC(F)(F)F)nc2)CO3)c(OC)nn1 [Example 98, N-[(3S)-5-(3,6-dimethoxypyridazin-4-yl)-3,4-dihydro-2H-chromen-3-yl]-6-(2,2,2-trifluoroethoxy)nicotinamide]	6310 nM
Cc1cncc(-c2cccc3c2C[C@H](NC(=O)c2ccc(OCC(F)(F)F)nc2)CO3)n1 [Example 99, N-[(3S)-5-(6-methylpyrazin-2-yl)-3,4-dihydro-2H-chromen-3-yl]-6-(2,2,2-trifluoroethoxy)nicotinamide]	398 nM
COc1ncc(-c2cccc3c2C[C@H](NC(=O)c2ccc(OCCCF)nc2)CO3)cn1 [Example 100, 6-(3-fluoropropoxy)-N-[(3S)-5-(2-methoxypyrimidin-5-yl)-3,4-dihydro-2H-chromen-3-yl]nicotinamide]	398 nM
Cc1ncc(-c2cccc3c2C[C@H](NC(=O)c2ccc(OCCCF)nc2)CO3)cn1 [Example 101, 6-(3-fluoropropoxy)-N-[(3S)-5-(2-methylpyrimidin-5-yl)-3,4-dihydro-2H-chromen-3-yl]nicotinamide]	158 nM
Cc1ncc(-c2cccc3c2C[C@H](NC(=O)c2ccc(OCC(F)(F)F)nc2)CO3)cn1 [Example 102, N-[(3S)-5-(2-methylpyrimidin-5-yl)-3,4-dihydro-2H-chromen-3-yl]-6-(2,2,2-trifluoroethoxy)nicotinamide]	100 nM
Cc1ncc(-c2cccc3c2C[C@H](NC(=O)c2ccnc(OC(C)C)c2)CO3)cn1 [Example 104, 2-isopropoxy-N-[(3S)-5-(2-methylpyrimidin-5-yl)-3,4-dihydro-2H-chromen-3-yl]isonicotinamide]	2510 nM
